Measurements as given in US20060069132A1, “Azolecarboxamide herbicides” (priority 2004, published 2006).

Experiments:
velvetleaf = test: Test B pre-/postemergence herbicide test; type: in vivo, Abutilon theophrasti; conditions: for Plant response rating, Velvetleaf: preemergence; for Velvetleaf plant response rating: postemergence, visual rating, scale 0 (no effect) to 100 (complete control)
Procedure, shortened: (§1)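 Evaluation is visual, comparing treated with control plants on a scale where 0 means no effect and 100 means full control. Treatments were preemergence, or postemergence on seedlings 2–18 cm tall, and held 13–15 days in the greenhouse.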

blackgrass = test: Test B postemergence herbicide test; type: in vivo, Alopecurus myosuroides; conditions: postemergence, visual rating, scale 0 (no effect) to 100 (complete control)
Procedure, shortened: (§2)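 Treated at 2-leaf (paddy) or 1–4-leaf, 2–18 cm (postemergence); greenhouse 13–15 d; visual score vs control, 0 none to 100 complete control; dash = not tested.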

giant foxtail = test: Test B pre-/postemergence herbicide test; type: in vivo, Setaria faberi; conditions: for Plant response rating, Foxtail, Giant: preemergence; for Foxtail, Giant plant response rating: postemergence, visual rating, scale 0 (no effect) to 100 (complete control)
Procedure, shortened: as §1

morningglory = test: Test B pre-/postemergence herbicide test; type: in vivo, Ipomoea coccinea; conditions: for Plant response rating, Morningglory: preemergence; for Morningglory plant response rating: postemergence, visual rating, scale 0 (no effect) to 100 (complete control)
Procedure, shortened: (§3)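 Herbicidal effect was judged by eye on a 0–100 scale after plants stood 13 to 15 days in the greenhouse following pre- or postemergence treatment with surfactant-containing formulations.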

[1] = system: small flower umbrella sedge; test: Test B flooded paddy test; type: in vivo, Cyperus difformis; conditions: 1000 g ai/ha, visual rating, scale 0 to 100 (0 no effect, 100 complete control), 13 to 15 days
Procedure, shortened: as §2

barnyardgrass [2] = test: Test B pre-/postemergence herbicide test; type: in vivo, Echinochloa crus-galli; conditions: for Plant response rating, Barnyardgrass: preemergence; for Barnyardgrass plant response rating: postemergence, visual rating, scale 0 (no effect) to 100 (complete control)
Procedure, shortened: as §3

rice = test: Test B flooded paddy test; type: in vivo, Oryza sativa; conditions: 1000 g ai/ha, visual rating, scale 0 to 100 (0 no effect, 100 complete control), 13 to 15 days
Procedure, shortened: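 Each value is a visual 0–100 response rating taken against controls 13 to 15 days after treatment in the greenhouse. Plants received formulated chemical postemergence at the 1- to 4-leaf stage or, in flooded paddy, at the 2-leaf stage.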

lambsquarters = test: Test B pre-/postemergence herbicide test; type: in vivo, Chenopodium album; conditions: for Plant response rating, Lambsquarters: preemergence; for Lambsquarters plant response rating: postemergence, visual rating, scale 0 (no effect) to 100 (complete control)
Procedure, shortened: as §1

barnyardgrass [3] = test: Test B flooded paddy test; type: in vivo, Echinochloa crus-galli; conditions: 1000 g ai/ha, visual rating, scale 0 to 100 (0 no effect, 100 complete control), 13 to 15 days
Procedure, shortened: as §2

wild oat = test: Test B postemergence herbicide test; type: in vivo, Avena fatua; conditions: postemergence, visual rating, scale 0 (no effect) to 100 (complete control)
Procedure, shortened: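 After treating 2-leaf paddy plants or 2–18 cm postemergence plants (1 to 4 leaves) with formulated chemical, researchers kept them in a greenhouse for 13–15 days. Effects were judged visually versus controls: 0 indicates none, 100 total control.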

corn = test: Test B pre-/postemergence herbicide test; type: in vivo, Zea mays; conditions: for Plant response rating, Corn: preemergence; for Corn plant response rating: postemergence, visual rating, scale 0 (no effect) to 100 (complete control)
Procedure, shortened: as §1

ducksalad = test: Test B flooded paddy test; type: in vivo, Heteranthera limosa; conditions: 1000 g ai/ha, visual rating, scale 0 to 100 (0 no effect, 100 complete control), 13 to 15 days
Procedure, shortened: as §2

large crabgrass = test: Test B pre-/postemergence herbicide test; type: in vivo, Digitaria sanguinalis; conditions: for Plant response rating, Crabgrass, Large: preemergence; for Crabgrass, Large plant response rating: postemergence, visual rating, scale 0 (no effect) to 100 (complete control)
Procedure, shortened: as §1

cocklebur = test: Test B pre-/postemergence herbicide test; type: in vivo, Xanthium strumarium; conditions: for Plant response rating, Cocklebur: preemergence; for Cocklebur plant response rating: postemergence, visual rating, scale 0 (no effect) to 100 (complete control)
Procedure, shortened: as §3

pigweed = test: Test B pre-/postemergence herbicide test; type: in vivo, Amaranthus retroflexus; conditions: for Plant response rating, Pigweed: preemergence; for Pigweed plant response rating: postemergence, visual rating, scale 0 (no effect) to 100 (complete control)
Procedure, shortened: as §1

[4] = 500 g ai/ha, visual rating 0-100, 0 no effect, 100 complete control
[5] = 125 g ai/ha, 0 to 100 scale, 0 is no effect, 100 is complete control

With `CCn1nc(C(C)(C)C)cc1C(=O)Nc1cccc(S(=O)(=O)C(F)(F)F)c1` [Compound 134] the “Plant response rating, Velvetleaf” value (velvetleaf; [4]) was 90, the “Velvetleaf plant response rating” value (velvetleaf; 125 g ai/ha) was 30 and the “Velvetleaf plant response rating” value (velvetleaf; 500 g ai/ha) was 40. The “Plant response rating, Velvetleaf” value (velvetleaf; [5]) was 30, the “Blackgrass plant response rating” value (blackgrass; 125 g ai/ha) was 0 and the “Blackgrass plant response rating” value (blackgrass; 500 g ai/ha) was 20. For the same compound, the “Plant response rating, Foxtail, Giant” value (giant foxtail; [4]) was 70, the “Foxtail, Giant plant response rating” value (giant foxtail; 125 g ai/ha) was 30 and the “Foxtail, Giant plant response rating” value (giant foxtail; 500 g ai/ha) was 40. For the same compound, the “Plant response rating, Foxtail, Giant” value (giant foxtail; [5]) was 20, the “Plant response rating, Morningglory” value (morningglory; [4]) was 20 and the “Morningglory plant response rating” value (morningglory; 125 g ai/ha) was 20. For the same compound, the “Morningglory plant response rating” value (morningglory; 500 g ai/ha) was 40, the “Plant response rating, Morningglory” value (morningglory; [5]) was 10 and the “Sedge, Umbrella plant response rating” value [1] was 80. The “Plant response rating, Barnyardgrass” value (barnyardgrass [2]; [4]) was 80, the “Barnyardgrass plant response rating” value (barnyardgrass [2]; 125 g ai/ha) was 20 and the “Barnyardgrass plant response rating” value (barnyardgrass [2]; 500 g ai/ha) was 40. The “Plant response rating, Barnyardgrass” value (barnyardgrass [2]; [5]) was 50, the “Rice plant response rating” value (rice) was 60 and the “Plant response rating, Lambsquarters” value (lambsquarters; [4]) was 100. The “Lambsquarters plant response rating” value (lambsquarters; 125 g ai/ha) was 80, the “Lambsquarters plant response rating” value (lambsquarters; 500 g ai/ha) was 90 and the “Plant response rating, Lambsquarters” value (lambsquarters; [5]) was 100. For the same compound, the “Barnyardgrass plant response rating” value (barnyardgrass [3]) was 60, the “Oat, Wild plant response rating” value (wild oat; 125 g ai/ha) was 30 and the “Oat, Wild plant response rating” value (wild oat; 500 g ai/ha) was 30. The “Plant response rating, Corn” value (corn; [4]) was 10, the “Corn plant response rating” value (corn; 125 g ai/ha) was 20 and the “Corn plant response rating” value (corn; 500 g ai/ha) was 30. The “Plant response rating, Corn” value (corn; [5]) was 0, the “Ducksalad plant response rating” value (ducksalad) was 90 and the “Plant response rating, Crabgrass, Large” value (large crabgrass; [4]) was 100. For the same compound, the “Crabgrass, Large plant response rating” value (large crabgrass; 125 g ai/ha) was 30, the “Crabgrass, Large plant response rating” value (large crabgrass; 500 g ai/ha) was 30 and the “Plant response rating, Crabgrass, Large” value (large crabgrass; [5]) was 80. The “Plant response rating, Cocklebur” value (cocklebur; [4]) was 0, the “Cocklebur plant response rating” value (cocklebur; 125 g ai/ha) was 80 and the “Cocklebur plant response rating” value (cocklebur; 500 g ai/ha) was 100. For the same compound, the “Plant response rating, Cocklebur” value (cocklebur; [5]) was 0, the “Plant response rating, Pigweed” value (pigweed; [4]) was 100 and the “Pigweed plant response rating” value (pigweed; 125 g ai/ha) was 80. The “Pigweed plant response rating” value (pigweed; 500 g ai/ha) was 90 and the “Plant response rating, Pigweed” value (pigweed; [5]) was 100.

For `CCn1nc(C(C)(C)C)cc1C(=O)Nc1cccc(C#N)c1` [Compound 139], the “Plant response rating, Velvetleaf” value (velvetleaf; [4]) was 80, the “Velvetleaf plant response rating” value (velvetleaf; 125 g ai/ha) was 20 and the “Velvetleaf plant response rating” value (velvetleaf; 500 g ai/ha) was 60. For the same compound, the “Plant response rating, Velvetleaf” value (velvetleaf; [5]) was 50, the “Blackgrass plant response rating” value (blackgrass; 125 g ai/ha) was 0 and the “Blackgrass plant response rating” value (blackgrass; 500 g ai/ha) was 10. The “Plant response rating, Foxtail, Giant” value (giant foxtail; [4]) was 100, the “Foxtail, Giant plant response rating” value (giant foxtail; 125 g ai/ha) was 10 and the “Foxtail, Giant plant response rating” value (giant foxtail; 500 g ai/ha) was 20. For the same compound, the “Plant response rating, Foxtail, Giant” value (giant foxtail; [5]) was 70, the “Plant response rating, Morningglory” value (morningglory; [4]) was 30 and the “Morningglory plant response rating” value (morningglory; 125 g ai/ha) was 10. For the same compound, the “Morningglory plant response rating” value (morningglory; 500 g ai/ha) was 100, the “Plant response rating, Morningglory” value (morningglory; [5]) was 10 and the “Sedge, Umbrella plant response rating” value [1] was 80. For the same compound, the “Plant response rating, Barnyardgrass” value (barnyardgrass [2]; [4]) was 90, the “Barnyardgrass plant response rating” value (barnyardgrass [2]; 125 g ai/ha) was 10 and the “Barnyardgrass plant response rating” value (barnyardgrass [2]; 500 g ai/ha) was 10. The “Plant response rating, Barnyardgrass” value (barnyardgrass [2]; [5]) was 80, the “Rice plant response rating” value (rice) was 50 and the “Plant response rating, Lambsquarters” value (lambsquarters; [4]) was 100. For the same compound, the “Lambsquarters plant response rating” value (lambsquarters; 125 g ai/ha) was 80, the “Lambsquarters plant response rating” value (lambsquarters; 500 g ai/ha) was 90 and the “Plant response rating, Lambsquarters” value (lambsquarters; [5]) was 100. The “Barnyardgrass plant response rating” value (barnyardgrass [3]) was 70, the “Oat, Wild plant response rating” value (wild oat; 125 g ai/ha) was 10 and the “Oat, Wild plant response rating” value (wild oat; 500 g ai/ha) was 10. The “Plant response rating, Corn” value (corn; [4]) was 40, the “Corn plant response rating” value (corn; 125 g ai/ha) was 10 and the “Corn plant response rating” value (corn; 500 g ai/ha) was 20. For the same compound, the “Plant response rating, Corn” value (corn; [5]) was 10, the “Ducksalad plant response rating” value (ducksalad) was 80 and the “Plant response rating, Crabgrass, Large” value (large crabgrass; [4]) was 100. The “Crabgrass, Large plant response rating” value (large crabgrass; 125 g ai/ha) was 10, the “Crabgrass, Large plant response rating” value (large crabgrass; 500 g ai/ha) was 20 and the “Plant response rating, Crabgrass, Large” value (large crabgrass; [5]) was 60. The “Plant response rating, Cocklebur” value (cocklebur; [4]) was 10, the “Cocklebur plant response rating” value (cocklebur; 125 g ai/ha) was 20 and the “Cocklebur plant response rating” value (cocklebur; 500 g ai/ha) was 100. The “Plant response rating, Cocklebur” value (cocklebur; [5]) was 0, the “Plant response rating, Pigweed” value (pigweed; [4]) was 100 and the “Pigweed plant response rating” value (pigweed; 125 g ai/ha) was 60. The “Pigweed plant response rating” value (pigweed; 500 g ai/ha) was 90 and the “Plant response rating, Pigweed” value (pigweed; [5]) was 90.
